Assay [1] concerns the target T1, B1R receptor of the rat (rB1R) (Rattus norvegicus, UniProt P97583).
T1 construct: expressed in transfected cells; host or cells: CHO K1 cells
T1 sequence (P97583 1-337): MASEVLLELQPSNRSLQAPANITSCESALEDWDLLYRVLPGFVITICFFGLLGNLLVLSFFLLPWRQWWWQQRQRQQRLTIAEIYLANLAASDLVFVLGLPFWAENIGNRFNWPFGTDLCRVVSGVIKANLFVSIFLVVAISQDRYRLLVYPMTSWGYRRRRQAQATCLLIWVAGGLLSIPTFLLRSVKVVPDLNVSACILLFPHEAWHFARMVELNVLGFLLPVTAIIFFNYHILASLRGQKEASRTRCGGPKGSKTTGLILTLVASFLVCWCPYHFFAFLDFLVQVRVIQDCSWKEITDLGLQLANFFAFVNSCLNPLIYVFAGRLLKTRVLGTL
The assay can be described thus: Functional investigation on the bradykinin receptor 1 (B1R), FLIPR Ca2+ assay, rB1R cells. Format: cell-based. A digest of the protocol: (§1)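 Stably transfected CHO K1 cells expressing human or rat B1R were loaded with Fluo-4, and Ca2+ fluorescence was read on a FLIPR. Compound (10 μM) was added first to measure activation. After 10–20 min, agonist at EC80 was added (Lys-Des-Arg9-bradykinin for hB1R, Des-Arg9-bradykinin for rB1R) to give % inhibition. IC50 values came from concentration series.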

Assay [2] deals with T2, human B1R receptor (hB1R) (Homo sapiens, UniProt P46663).
T2 construct: expressed in transfected cells; host or cells: CHO K1 cells
T2 sequence (P46663 1-353): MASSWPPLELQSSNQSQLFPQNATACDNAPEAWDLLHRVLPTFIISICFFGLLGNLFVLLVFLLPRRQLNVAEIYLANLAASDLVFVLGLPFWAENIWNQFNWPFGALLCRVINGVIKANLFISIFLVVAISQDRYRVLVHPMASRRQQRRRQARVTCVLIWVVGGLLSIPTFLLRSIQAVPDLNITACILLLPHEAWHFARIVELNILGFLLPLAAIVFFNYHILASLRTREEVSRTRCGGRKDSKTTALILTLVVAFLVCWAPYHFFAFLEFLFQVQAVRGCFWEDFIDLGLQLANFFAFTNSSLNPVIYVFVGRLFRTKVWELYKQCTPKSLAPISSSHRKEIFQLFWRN
The assay can be described thus: Functional investigation on the bradykinin receptor 1 (B1R), FLIPR Ca2+ assay, hB1R cells. Format: cell-based. The method in brief:
as §1

Broadly, the inhibition is the relative decrease from the control value, in per cent. Consider `COc1cc(C)c(S(=O)(=O)N(C)c2nc3c(C(=O)N4CCC5(CC4)CCN(c4ccncc4)C5)cccc3s2)c(C)c1` [I_CC-21, 4-methoxy-N,2,6-trimethyl-N-[4-(3-pyridin-4-yl-3,8-diazaspiro[4.5]decane-8-carbonyl)-benzothiazol-2-yl]-benzenesulfonic acid amide], for which the results for the inhibition at 10 µM in assay [1] and in assay [2] were 65% and 36%, respectively.

Consider `CN(Cc1nc2cccc(C(=O)N3CCC4(CC3)CCN(c3ccncc3)CC4)c2[nH]1)C(=O)c1ccc(Cl)s1` [I_16, 5-chloro-N-methyl-N-[[7-(9-pyridin-4-yl-3,9-diazaspiro[5.5]undecane-3-carbonyl)-1H-benzoimidazol-2-yl]-methyl]-thiophene-2-carboxylic acid amide], for which the inhibition at 10 µM in assay [1] stood at 105%; in assay [2] it was 91%.

Regarding `COc1cc(C)c(S(=O)(=O)N(C)C(C)c2nc3cccc(C(=O)N4CCC5(CCN(Cc6cncn6C)CC5)CC4)c3[nH]2)c(C)c1` (centres unmarked) [I_CC-36, 4-Methoxy-N,2,6-trimethyl-N-[1-[7-[9-[(3-methyl-3H-imidazol-4-yl)-methyl]-3,9-diazaspiro[5.5]undecane-3-carbonyl]-1H-benzoimidazol-2-yl]-ethyl]-benzenesulfonic acid amide], the inhibition at 10 µM in assay [1] is 100%; in assay [2] it was 82%.

As to `COc1cc(C)c(S(=O)(=O)N(C)Cc2nc3c(C(=O)N4CCC5(CC4)CCN(c4ccncc4)CC5)cccc3s2)c(C)c1` [I_CC-22, 4-methoxy-N,2,6-trimethyl-N-[[4-(3-pyridin-4-yl-3,9-diazaspiro[5.5]undecane-9-carbonyl)-benzothiazol-2-yl]-methyl]-benzenesulfonic acid amide], the inhibition at 10 µM in assay [1] was found to be 93%; in assay [2], 95%.

Take `COc1cc(C)c(S(=O)(=O)N(C)c2nc3ccc(C(=O)N4CCC5(CC4)CCN(c4ccncc4)C5)cc3n2C)c(C)c1` [I_CC-18, 4-methoxy-N,2,6-trimethyl-N-[1-methyl-6-(3-pyridin-4-yl-3,8-diazaspiro[4.5]decane-8-carbonyl)-1H-benzoimidazol-2-yl]-benzenesulfonic acid amide]: the inhibition at 10 µM is 48% in assay [1] and 39% in assay [2].

On to `COc1cc(C)c(S(=O)(=O)N(C)C(C)c2nc3cccc(C(=O)N4CCC5(CCN(C(=O)c6ccc(F)cc6F)CC5)CC4)c3[nH]2)c(C)c1` (centres unmarked) [I_CC-53, N-[1-[7-[9-(2,4-Difluoro-benzoyl)-3,9-diazaspiro[5.5]undecane-3-carbonyl]-1H-benzoimidazol-2-yl]-ethyl]-4-methoxy-N,2,6-trimethyl-benzenesulfonic acid amide], for which the inhibition at 10 µM in assay [1] was determined as 88%; in assay [2], 85%.

For the molecule `COc1cc(C)c(S(=O)(=O)N(C)C(C)c2nc3cccc(C(=O)N4CCC5(CCN(Cc6ccc(F)c(F)c6)CC5)CC4)c3[nH]2)c(C)c1` (centres unmarked) [I_CC-30, N-[1-[7-[9-[(3,4-Difluoro-phenyl)-methyl]-3,9-diazaspiro[5.5]undecane-3-carbonyl]-1H-benzoimidazol-2-yl]-ethyl]-4-methoxy-N,2,6-trimethyl-benzenesulfonic acid amide], the values for the inhibition at 10 µM in assay [1] and in assay [2] were 99% and 63%, respectively.

As to `CN(Cc1nc2cccc(C(=O)N3CCC4(CC3)C(=O)NCC4c3ccncc3)c2[nH]1)C(=O)c1ccccc1Cl` (centres unmarked) [I_CC-02, 2-chloro-N-methyl-N-[[7-(4-oxo-1-pyridin-4-yl-3,8-diazaspiro[4.5]decane-8-carbonyl)-1H-benzoimidazol-2-yl]-methyl]-benzamide], the inhibition at 10 µM in assay [1] is 46%; in assay [2], 10%.

For the molecule `COc1cc(C)c(C(=O)N(C)Cc2nc3cccc(C(=O)N4CCC5(CC4)CCN(c4ccncc4)CC5)c3[nH]2)c(C)c1` [I_CC-23, 4-methoxy-N,2,6-trimethyl-N-[[7-(3-pyridin-4-yl-3,9-diazaspiro[5.5]undecane-9-carbonyl)-1H-benzoimidazol-2-yl]-methyl]-benzamide], the inhibition at 10 µM in assay [1] amounted to 105%; in assay [2], 100%.

Take `COc1cc(C)c(S(=O)(=O)N(C)C(C)c2nc3cccc(C(=O)N4CCC5(CCN(Cc6ccc(F)cc6Cl)CC5)CC4)c3[nH]2)c(C)c1` (centres unmarked) [I_CC-39, N-[1-[7-[9-[(2-Chloro-4-fluoro-phenyl)-methyl]-3,9-diazaspiro[5.5]undecane-3-carbonyl]-1H-benzoimidazol-2-yl]-ethyl]-4-methoxy-N,2,6-trimethyl-benzenesulfonic acid amide]: the inhibition at 10 µM came to 95% in assay [1] and 49% in assay [2].

For the molecule `COc1cc(C)c(S(=O)(=O)N(C)c2nc3c(C(=O)N4CCC5(CC4)CCN(c4ccncc4)CC5)cccc3s2)c(C)c1` [I_CC-19, 4-methoxy-N,2,6-trimethyl-N-[4-(3-pyridin-4-yl-3,9-diazaspiro[5.5]undecane-9-carbonyl)-benzothiazol-2-yl]-benzenesulfonic acid amide], the results for the inhibition at 10 µM in assay [1] and in assay [2] were 80% and 54%, respectively.

As for `COc1cc(C)c(S(=O)(=O)N2CCCCC2c2nc3cccc(C(=O)N4CCC5(CC4)CCN(c4ccncc4)CC5)c3[nH]2)c(C)c1` (centres unmarked) [I_18, [2-[1-[(4-methoxy-2,6-dimethyl-phenyl)sulfonyl]-piperidin-2-yl]-3H-benzoimidazol-4-yl]-(9-pyridin-4-yl-3,9-diazaspiro[5.5]undecan-3-yl)-methanone], the inhibition at 10 µM was determined as 49% in assay [1] and 97% in assay [2].

As for `COc1cc(C)c(S(=O)(=O)N(C)Cc2nc3cccc(C(=O)N4CCC5(CCC(N6CCC6)CC5)CC4)c3[nH]2)c(C)c1` [I_04, N-[[7-[9-(azetidin-1-yl)-3-azaspiro[5.5]undecane-3-carbonyl]-1H-benzoimidazol-2-yl]-methyl]-4-methoxy-N,2,6-trimethyl-benzenesulfonic acid amide], the inhibition at 10 µM in assay [1] is 97%; in assay [2], 99%.

For the molecule `COc1cc(C)c(S(=O)(=O)N(C)Cc2nc3ccc(F)c(C(=O)N4CCC5(CC4)CCN(c4ccncc4)CC5)c3[nH]2)c(C)c1` [I_13, N-[[6-fluoro-7-(9-pyridin-4-yl-3,9-diazaspiro[5.5]undecane-3-carbonyl)-1H-benzoimidazol-2-yl]-methyl]-4-methoxy-N,2,6-trimethyl-benzenesulfonic acid amide], the inhibition at 10 µM in assay [1] was determined as 93%; in assay [2] it was 98%.

As for `COc1cc(C)c(S(=O)(=O)N(C)C(C)c2nc3cccc(C(=O)N4CCC5(CCN(C(=O)CC(C)(C)C)CC5)CC4)c3[nH]2)c(C)c1` (centres unmarked) [I_CC-51, N-[1-[7-[9-(3,3-Dimethyl-butanoyl)-3,9-diazaspiro[5.5]undecane-3-carbonyl]-1H-benzoimidazol-2-yl]-ethyl]-4-methoxy-N,2,6-trimethyl-benzenesulfonic acid amide], the inhibition at 10 µM in assay [1] came out at 88%; in assay [2] it was 78%.

As for `COc1cc(C)c(S(=O)(=O)N(C)C(C)c2nc3cccc(C(=O)N4CCC5(CC4)CCN(S(=O)(=O)c4ccccc4C#N)CC5)c3[nH]2)c(C)c1` (centres unmarked) [I_CC-59, N-[1-[7-[9-[(2-Cyano-phenyl)sulfonyl]-3,9-diazaspiro[5.5]undecane-3-carbonyl]-1H-benzoimidazol-2-yl]-ethyl]-4-methoxy-N,2,6-trimethyl-benzenesulfonic acid amide], the inhibition at 10 µM in assay [1] is 103%; in assay [2] it was 20%.
